What was measured:
[1] = test system: Mycobacterium tuberculosis; details: NAC at 10 millimolar; cited from earlier work
[2] = test system: IL-10; experiment: IL-10 secretion by macrophages infected ex vivo with M. Tb H37Rv (FIG. 3; healthy individuals and Type 2 diabetes mellitus); assay type: cell-based, human; details: NAC supplied in millimolar amounts
Excerpt: FIG. 3 is two bar graphs using various substances or compositions for raising glutathione in macrophages and how macrophages respond to these various methods. On the left is a control graph for healthy individuals. On the right is a graph for individuals affected with Type 2 diabetes mellitus.
The right graph of FIG. 3 depicts the response of macrophages from individuals with Type 2 diabetes mellitus ex vivo, which have been infected with M. Tb strain H37Rv.
Prior to the current invention, no method of lowering IL-10 in individuals with type 1 or type 2 diabetes mellitus has been proposed. Type 1 diabetes is an immune disorder in which the body's immune cells (white blood cells) attack and destroy insulin-producing beta cells in the pancreas. As a result, the body cannot produce insulin and glucose stays and builds up in the blood, where it damages all the organ systems. […] Similar to type 1 diabetes, type 2 causes a build-up of glucose in the blood which damages the body's organ systems. One of the key complications of Type 2 diabetes is prolonged infection and inhibited response to infection and poor wound healing. This Type 2 form of the disease is commonly referred to as adult-onset diabetes. Cytokine levels, such as for IL-10, in plasma samples can be determined by sandwich enzyme linked immunosorbent assay (ELISA) using assay kits from eBioscience (kit named ELISA Ready-Set-Go). […]

For CC(=O)N[C@@H](CS)C(=O)O [NAC, N-acetyl cysteine], the “M. tuberculosis CFU/ml in macrophages” value [1] is listed as 8,000 CFU/ml and the “IL-10 level from macrophages in cell culture” value [2] is listed as “reduce to normal”.

— US20170281714A1, “METHOD OF TREATMENT USING L[…] G[…] COOPERATE WITH IL-10 TO MODULATE INFLAMMATORY RESPONSE TRIGGERED IN HIV+ AND TB IMMUNE-C[…] PATIENTS” (Your Energy Systems, LLC, priority 2014, published 2017)
